From patent publication US20020086895A1, “Methods of treating fungal infections” (priority 1985, published 2002) come the findings set out here.

Like-named read-outs stand apart in the source and are kept apart here.

The subject of assay [1] is chitin synthase II (CS II). The assay can be described thus: Inhibition of chitin synthase, CS II only. Type of assay: biochemical, C. albicans. How it is done:
Plasma membrane was purified from C. albicans (ATCC #90028) according to Orlean, J. Biol. Chem. 262:5732-5-1987. To minimize proteolysis during plasma membrane preparation, 1% fetal calf serum was incorporated into the homogenization buffer. Plasma membrane was activated by trypsin (125 μg/mg protein) in the presence of 1.5 mM UDP-GLcNAc(c) at 25° C. for 5 minutes. The reaction was stopped by the addition of soybean trypsin inhibitor. The activated membranes (0.125 mg membrane protein/mL) were […], 40 mM GlcNAc, 4 mM ^14C-UDP-GlcNAc (specific: 0.25 mCi/mmol) (New England Nuclear Boston, Mass.) and plant extract (100 μg/mL). The incubation was carried out at 37° C. for 1 hour and terminated with the addition of trichloroacetic acid (10%). The reaction mixture was transferred to a pre-wetted glass fiber filter. The filter was washed with 4×200 μL of a 7:3 solution of 95% EtOH and 1 M acetic acid. The filter was dried under a heat lamp and counted in a Microbeta counter (Wallac, Gaithersburg, Md.) after the addition of 25 μL OPTIPHASE SUPERMIX™ (Wallac) scintillation fluid. Nikkomycin Z and Polyoxin D were used as positive controls (Calbiochem, San Diego, Calif.). Vehicle control was carried out with the same amount of DMSO (2%).
The SOP assay described above was modified to pH 7.5 and 5 mM MgCl2 (instead of CoCl2). […]

Assay [2] relates to Candida krusei (strain ATCC #90030). In words: Inhibition of Candida spp. culture (XTT). Format: cell-based. The settings on record: Pichia kudriavzevii, ATCC90030, C. krusei, 22 hours at 35° C., read-out: antifungal MIC. Here is the method: (§1) Candida albicans (strain ATCC #90028), Candida krusei (strain ATCC #90030), and Torulopsis (Candida) glabrata (strain ATCC #6258) were subcultured from cryopreserved stocks onto sabourand dextrose agar plates. Blastoconidia were suspended into RPMI-MOPS (media) and inoculated (500 cfu/well) into 96-well plates containing test compounds in a final volume of 100 μL/well. After 22 hours at 35° C., 25 μL of XTT (2,3-bis(2-methoxy-4-nitro-5-sulfophenyl)-5-[(phenylamino)carbonyl]-2H-tetrazolium hydroxide), (100 μg/mL) with PMS (phenazine methyl sulfate, 5 μM) were added to each well, followed by 2 hours of shaking. Growth was assessed spectrophotometrically by measuring the appearance of soluble formazan stain at 450 nm using an Emax microplate reader.
(Tetrazolium assays rely on reduction of a dye to a coloured formazan, in cell work by metabolically active cells.)

Assay [3] deals with Torulopsis (Candida) glabrata (strain ATCC #6258). The assay can be described thus: Inhibition of Candida spp. culture (XTT). Type of assay: cell-based. To be noted: T. (C.) glabrata, 22 hours at 35° C., read-out: antifungal MIC. How it is done:
as §1

The test system of assay [4] is Candida albicans (strain ATCC #90028). In words: Inhibition of Candida spp. culture (XTT). Type of assay: cell-based. To be noted: Candida albicans, ATCC90028; C. albicans; XTT, 22 hours at 35° C.; read-out: antifungal MIC. Here is the method:
as §1

For a further assay, the system named is C. albicans. The assay can be described thus: Inhibition of C. albicans with drug combinations. Format: cell-based, Candida albicans. How it is done:
as §1
Formula (V) was tested in combination with known antifungal agents amphotericin B and fluconazole. A 10 mg/ml stock solution of formula (V) was diluted in 100% DMSO and stored at −80° C. Fluconazole and Amphotericin B were similarly prepared and stored as a 8 mg/ml stock solution, and a 1.25 mg/ml stock solution, respectively. Each known antifungal agent was added (2 μl/well), then 2 μl/well of the formula (V) solution was added to the designated wells. The remainder of the experiment follows Example 21.

For assay [5], the system named is Candida albicans strain #64, sensitive to fluconazole. In words: Fluconazole-sensitive candidiasis in mice. Type of assay: in vivo. To be noted: for percent survival after 30 days: once a day for 10 days. Here is the method:
Immunocompetent mice (ICR, Sprague-Dawley, Indianapolis, Ind.) were infected with a pathogenic strain (strain #64) of Candida albicans which is sensitive to fluconazole. […] […] […] In addition, the organ fungal load (in CFU) was measured at day 30.

Assay [6] has as its target T1, chitin synthase III (CS III) (Candida albicans, UniProt P30573).
T1 construct: endogenous in cells
In words: Inhibition of chitin synthase, CS III only. Format: biochemical, C. albicans. Here is the method:
Plasma membrane was purified from C. albicans (ATCC #90028) according to Orlean, J. Biol. Chem. 262:5732-5-1987. To minimize proteolysis during plasma membrane preparation, 1% fetal calf serum was incorporated into the homogenization buffer. Plasma membrane was activated by trypsin (125 μg/mg protein) in the presence of 1.5 mM UDP-GLcNAc(c) at 25° C. for 5 minutes. The reaction was stopped by the addition of soybean trypsin inhibitor. The activated membranes (0.125 mg membrane protein/mL) were then assayed in a total of 50 μL reaction mixture containing 50 mM Tris-HCl (pH 8.0) 3 mM CoCl2, 40 mM GlcNAc, 4 mM ^14C-UDP-GlcNAc (specific: 0.25 mCi/mmol) (New England Nuclear Boston, Mass.) and plant extract (100 μg/mL). The incubation was carried out at 37° C. for 1 hour and terminated with the addition of trichloroacetic acid (10%). The reaction mixture was transferred to a pre-wetted glass fiber filter. The filter was washed with 4×200 μL of a 7:3 solution of 95% EtOH and 1 M acetic acid. The filter was dried under a heat lamp and counted in a Microbeta counter (Wallac, Gaithersburg, Md.) after the addition of 25 μL OPTIPHASE SUPERMIX™ (Wallac) scintillation fluid. Nikkomycin Z and Polyoxin D were used as positive controls (Calbiochem, San Diego, Calif.). Vehicle control was carried out with the same amount of DMSO (2%). […]

Assay [7] has as its system C. albicans UTR-14, fluconazole-resistant clinical isolate. The assay can be described thus: Fluconazole-resistant candidiasis in mice. Type of assay: in vivo. The settings on record: 40 mg per kg body weight p.o.
Assay [8] relates to C. glabrata (Fluconazole resistant). The assay can be described thus: Inhibition of fungal growth, MIC scored visually. Format: cell-based, Candida glabrata. The settings on record: Nakaseomyces glabratus; fluconazole resistant clinical isolate; 24 hour incubation at 35° C.; read-out: Minimum Inhibitory Concentration.
For the next assay, the system named is C. krusei ATCC6258. In words: Inhibition of fungal growth, MIC scored visually. The settings on record: Pichia kudriavzevii, 24 hour incubation at 35° C., read-out: Minimum Inhibitory Concentration. Format: cell-based, Candida krusei. How it is done:
(§2) Test compounds were tested against nine isolates in an eight-point dose response assay ranging from 50 μg/ml to 0.39 μg/ml. Aspergillus MIC's (minimum inhibitory concentrations) were scored visually after 48 and 72 hours at 37° C. […] Amphotericin B (2.5 μg/ml) and 5-flucytosine (2.0 μg ml) were standard controls for each antifungal assay. […] The results are shown below in Table 4, MIC values in μg/ml after 72 hours. HFF toxicity was analyzed after a 24 hour incubation at 37° C. (5% CO2). MTS/PMS was added, and the sample absorbance was read at 450 nm.

Assay [9] concerns C. parapsilosis ATCC90018. The assay can be described thus: Inhibition of fungal growth, MIC scored visually. The settings on record: Lodderomyces parapsilosis, 24 hour incubation at 35° C., read-out: Minimum Inhibitory Concentration. Type of assay: cell-based, Candida parapsilosis. How it is done:
as §2

Another assay relates to C. albicans ATCC90028. In words: Inhibition of fungal growth, MIC scored visually. Format: cell-based. The settings on record: Candida albicans, 24 hour incubation at 35° C., read-out: Minimum Inhibitory Concentration.
The next assay has as its system A.funigatus 94-2766. The assay can be described thus: Inhibition of fungal growth, MIC scored visually. Type of assay: cell-based. To be noted: Aspergillus fumigatus, 942766. Here is the method:
as §2

For a further assay, the system named is A. funigatis ATCC8001. The assay can be described thus: Inhibition of fungal growth, MIC scored visually. Type of assay: cell-based. The settings on record: Aspergillus fumigatus. How it is done:
as §2

The subject of another assay is C. tropicalis ATCC75O. The assay can be described thus: Inhibition of fungal growth, MIC scored visually. Format: cell-based. The settings on record: Candida tropicalis, 24 hour incubation at 35° C., read-out: Minimum Inhibitory Concentration. How it is done:
as §2

For another assay, the system named is A. niger. The assay can be described thus: Inhibition of fungal growth, MIC scored visually. To be noted: Aspergillus niger. Type of assay: cell-based. How it is done:
as §2

T1 sequence (P30573 whole entry): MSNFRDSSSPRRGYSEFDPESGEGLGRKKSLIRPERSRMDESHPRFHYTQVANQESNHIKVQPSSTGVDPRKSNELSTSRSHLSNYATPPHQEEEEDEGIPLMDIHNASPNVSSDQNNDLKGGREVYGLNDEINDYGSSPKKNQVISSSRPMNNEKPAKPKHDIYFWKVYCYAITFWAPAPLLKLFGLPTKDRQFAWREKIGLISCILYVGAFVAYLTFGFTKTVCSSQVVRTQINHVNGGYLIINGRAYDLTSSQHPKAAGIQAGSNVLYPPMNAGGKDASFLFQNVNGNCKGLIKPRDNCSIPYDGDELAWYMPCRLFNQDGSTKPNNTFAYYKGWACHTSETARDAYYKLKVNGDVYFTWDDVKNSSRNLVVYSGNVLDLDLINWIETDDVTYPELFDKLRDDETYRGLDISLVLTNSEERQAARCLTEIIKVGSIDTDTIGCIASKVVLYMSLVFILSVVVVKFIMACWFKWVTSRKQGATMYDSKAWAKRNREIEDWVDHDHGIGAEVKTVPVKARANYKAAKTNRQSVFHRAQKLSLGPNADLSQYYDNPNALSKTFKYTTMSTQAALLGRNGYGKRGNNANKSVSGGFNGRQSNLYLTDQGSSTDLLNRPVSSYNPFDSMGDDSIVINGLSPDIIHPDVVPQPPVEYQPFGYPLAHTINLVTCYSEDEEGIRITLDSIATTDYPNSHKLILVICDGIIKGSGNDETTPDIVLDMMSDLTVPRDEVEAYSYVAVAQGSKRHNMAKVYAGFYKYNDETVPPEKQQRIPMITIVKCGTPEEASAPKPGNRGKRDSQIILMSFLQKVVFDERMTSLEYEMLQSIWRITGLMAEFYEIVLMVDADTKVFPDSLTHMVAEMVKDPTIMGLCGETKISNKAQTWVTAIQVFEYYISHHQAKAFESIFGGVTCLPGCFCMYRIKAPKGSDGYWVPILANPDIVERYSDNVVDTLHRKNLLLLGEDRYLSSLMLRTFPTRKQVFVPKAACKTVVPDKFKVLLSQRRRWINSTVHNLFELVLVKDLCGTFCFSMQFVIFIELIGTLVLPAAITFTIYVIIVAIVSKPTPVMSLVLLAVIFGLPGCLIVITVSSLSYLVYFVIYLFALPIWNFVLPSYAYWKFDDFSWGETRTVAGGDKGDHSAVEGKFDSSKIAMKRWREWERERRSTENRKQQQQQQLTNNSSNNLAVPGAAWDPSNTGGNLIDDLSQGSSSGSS

Consider `CC(C)=CCc1c(O)cc2c(c1O)C(=O)C(=Cc1ccc(O)c(O)c1)O2` [Formula (V), 5-prenylaureusidin], for which the results for the IC50 in [1] and in assay [6] were 223 µM and 107 µM, respectively. The MIC in [2] stood at 6.25 µg/mL; in assay [3], 6.25 µg/mL; in assay [4], 12.5 µg/mL. Besides, the “combination effect with Amphotericin B” value with C. albicans (in combination with Amphotericin B) is listed as “apparent synergy”. Further, in the assay with C. albicans (in combination with fluconazole), the “combination effect with fluconazole” value is reported as “apparent additivity”. In addition, the “percent survival after 30 days” value in assay [5] (20 mg per kg body weight i.p.) is recorded as “about 70%”; in assay [5] (40 mg per kg body weight p.o.), “about 60%”. In assay [5] (day 30), the “fungal load reduction in each organ” value is listed as “over 99%”. In addition, the “percent survival after 20 days” value in [7] was “about 80%”.

Consider `CC(C)(C)c1ccc(/C=C2\Oc3cc(O)cc(O)c3C2=O)cc1` [Formula S02], for which the MIC in [8] is 0.39 µg/mL; in the assay with C. krusei ATCC6258 it was 6.25 µg/mL; in [9], 6.25 µg/mL; with C. albicans ATCC90028, 12.5 µg/mL; in the assay with A.funigatus 94-2766 (94-2766, value in parentheses, not defined (scored after 48 and 72 hours), read-out: Minimum Inhibitory Concentration (value in parentheses)), more than 50 µg/mL; in the assay with A.funigatus 94-2766 (94-2766 clinical isolate, value outside parentheses, read-out: Minimum Inhibitory Concentration), 6.25 µg/mL. Also, the MIC in the assay on A. funigatis ATCC8001 (ATCC8001, ATCC8001 (X2), value outside parentheses, read-out: Minimum Inhibitory Concentration) is 6.25 µg/mL; with A. funigatis ATCC8001 (ATCC8001, read-out: Minimum Inhibitory Concentration (value in parentheses), ATCC8001 (X2), value in parentheses, not defined (scored after 48 and 72 hours)), more than 50 µg/mL; with A. funigatis ATCC8001 (ATCC8001, read-out: Minimum Inhibitory Concentration, ATCC8001 (X1), 37° C.) it was 12.5 µg/mL; with C. tropicalis ATCC75O, 12.5 µg/mL; with A. niger (clinical isolate, value outside parentheses, read-out: Minimum Inhibitory Concentration), more than 50 µg/mL; with A. niger (value in parentheses, not defined (scored after 48 and 72 hours), read-out: Minimum Inhibitory Concentration (value in parentheses)), more than 50 µg/mL.
